Experimental data from patent US20190330224A1, “ACC INHIBITORS AND USES THEREOF” (Gilead Apollo, LLC, priority 2015, published 2019).
Converted amounts (≈) assume the structure as drawn.

Assays:
Fungal ACC2 = Fungal ACC2 (UniProt Q00955); settings: read-out: Fungal ACC2 (IC50, in vitro ACC2 inhibition)
[1] = test system: C. parapsilosis ATCC 22019; test: Anti-Fungal Activity Assay (broth microtiter MIC), C. parapsilosis; type: cell-based, Candida parapsilosis; settings: Lodderomyces parapsilosis, ATCC22019, 48 h, 3 replicates; MIC recorded at 48 h; read-out: MIC C. parapsilosis ATCC 22019
Method in brief: (§1)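 MIC taken as visual growth inhibition versus the growth control, mostly at 48 h (soraphen also at 24 h). Following CLSI M27-A3, colonies grown overnight at 35° C on Sabouraud dextrose agar were suspended in RPMI 1640+MOPS; test agents came from 1 mg/mL DMSO stocks.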

Human ACC2 = Human ACC2 (Homo sapiens, UniProt O00763); test: In vitro ACC2 inhibition assay (ADP-Glo), human ACC2; type: biochemical; settings: 5 nM ACC2, 20 μM ATP, 20 μM acetyl-CoA
C. krusei ATCC 6258 = test: Anti-Fungal Activity Assay (broth microtiter MIC), C. krusei; type: cell-based, Candida krusei; settings: Pichia kudriavzevii, ATCC6258, 48 h, 3 replicates; MIC recorded at 48 h; read-out: MIC C. krusei ATCC 6258
Method in brief: as §1

C. albicans ATCC 90028 = test: Anti-Fungal Activity Assay (broth microtiter MIC), C. albicans; type: cell-based, Candida albicans; settings: Candida albicans, ATCC90028, 48 h, 3 replicates; MIC recorded at 48 h; read-out: MIC C. albicans ATCC 90028
Method in brief: as §1

Chain of Human ACC2 (O00763 whole entry): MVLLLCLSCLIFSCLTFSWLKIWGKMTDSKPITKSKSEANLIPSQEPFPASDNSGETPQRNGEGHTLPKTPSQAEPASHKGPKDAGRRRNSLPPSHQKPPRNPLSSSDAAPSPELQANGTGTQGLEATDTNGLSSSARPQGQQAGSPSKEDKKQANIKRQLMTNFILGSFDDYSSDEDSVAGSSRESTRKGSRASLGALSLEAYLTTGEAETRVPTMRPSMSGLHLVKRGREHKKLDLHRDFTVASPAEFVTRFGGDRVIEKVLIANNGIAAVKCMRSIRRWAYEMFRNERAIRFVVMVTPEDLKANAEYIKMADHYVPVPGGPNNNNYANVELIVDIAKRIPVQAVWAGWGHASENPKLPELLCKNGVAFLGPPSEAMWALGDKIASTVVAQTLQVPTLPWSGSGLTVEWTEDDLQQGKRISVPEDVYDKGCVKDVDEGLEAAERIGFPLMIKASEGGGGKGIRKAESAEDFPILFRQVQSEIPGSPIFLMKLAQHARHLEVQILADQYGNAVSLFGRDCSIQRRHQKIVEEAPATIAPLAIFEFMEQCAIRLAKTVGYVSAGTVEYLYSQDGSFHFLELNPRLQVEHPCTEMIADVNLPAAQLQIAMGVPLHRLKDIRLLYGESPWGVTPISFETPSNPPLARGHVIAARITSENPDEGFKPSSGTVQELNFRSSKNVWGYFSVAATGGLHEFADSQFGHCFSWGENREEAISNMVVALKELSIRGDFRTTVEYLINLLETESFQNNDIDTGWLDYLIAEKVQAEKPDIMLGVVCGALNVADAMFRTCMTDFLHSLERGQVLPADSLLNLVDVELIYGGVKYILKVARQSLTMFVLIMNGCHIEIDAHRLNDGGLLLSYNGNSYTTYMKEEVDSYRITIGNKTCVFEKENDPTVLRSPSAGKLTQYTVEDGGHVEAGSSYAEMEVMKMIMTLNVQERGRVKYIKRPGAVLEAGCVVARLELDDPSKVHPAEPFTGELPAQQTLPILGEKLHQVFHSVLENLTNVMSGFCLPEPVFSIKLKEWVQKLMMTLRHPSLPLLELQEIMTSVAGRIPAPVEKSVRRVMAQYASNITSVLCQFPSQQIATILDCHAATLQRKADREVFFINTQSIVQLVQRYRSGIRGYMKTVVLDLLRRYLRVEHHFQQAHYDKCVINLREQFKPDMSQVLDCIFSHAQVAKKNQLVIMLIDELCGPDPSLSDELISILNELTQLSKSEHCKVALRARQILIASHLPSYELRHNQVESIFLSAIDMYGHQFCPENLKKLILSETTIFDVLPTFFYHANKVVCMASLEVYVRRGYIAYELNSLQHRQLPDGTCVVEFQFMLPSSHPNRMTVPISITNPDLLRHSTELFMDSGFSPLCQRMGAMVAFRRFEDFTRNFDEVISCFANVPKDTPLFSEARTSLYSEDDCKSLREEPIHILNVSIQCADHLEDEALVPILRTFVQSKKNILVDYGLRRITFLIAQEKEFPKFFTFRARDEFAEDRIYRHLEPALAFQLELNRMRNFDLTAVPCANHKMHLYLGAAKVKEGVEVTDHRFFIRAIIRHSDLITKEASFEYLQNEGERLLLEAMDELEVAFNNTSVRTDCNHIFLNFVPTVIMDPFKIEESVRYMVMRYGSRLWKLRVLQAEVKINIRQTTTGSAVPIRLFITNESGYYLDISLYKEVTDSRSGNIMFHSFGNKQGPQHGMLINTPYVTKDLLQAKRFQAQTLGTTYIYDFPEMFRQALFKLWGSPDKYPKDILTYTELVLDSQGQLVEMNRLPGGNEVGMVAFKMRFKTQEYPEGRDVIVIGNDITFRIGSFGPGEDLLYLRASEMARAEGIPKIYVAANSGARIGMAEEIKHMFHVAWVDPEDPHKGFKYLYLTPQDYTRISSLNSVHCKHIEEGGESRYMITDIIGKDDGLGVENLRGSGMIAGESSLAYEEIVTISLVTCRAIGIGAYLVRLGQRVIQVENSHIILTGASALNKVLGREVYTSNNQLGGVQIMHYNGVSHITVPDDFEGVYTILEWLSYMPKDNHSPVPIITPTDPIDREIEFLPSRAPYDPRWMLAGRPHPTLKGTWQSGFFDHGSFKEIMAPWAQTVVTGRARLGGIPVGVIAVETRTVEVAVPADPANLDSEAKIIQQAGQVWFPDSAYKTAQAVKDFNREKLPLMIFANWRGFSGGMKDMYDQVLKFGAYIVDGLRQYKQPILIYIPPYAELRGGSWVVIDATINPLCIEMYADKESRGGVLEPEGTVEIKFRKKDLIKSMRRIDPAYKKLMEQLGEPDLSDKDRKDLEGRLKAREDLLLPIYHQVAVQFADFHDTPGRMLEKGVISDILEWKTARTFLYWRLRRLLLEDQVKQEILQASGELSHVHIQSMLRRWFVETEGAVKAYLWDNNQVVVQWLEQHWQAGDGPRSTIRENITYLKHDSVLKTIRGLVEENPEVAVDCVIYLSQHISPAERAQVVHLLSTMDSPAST
Chain of Fungal ACC2 (Q00955 whole entry): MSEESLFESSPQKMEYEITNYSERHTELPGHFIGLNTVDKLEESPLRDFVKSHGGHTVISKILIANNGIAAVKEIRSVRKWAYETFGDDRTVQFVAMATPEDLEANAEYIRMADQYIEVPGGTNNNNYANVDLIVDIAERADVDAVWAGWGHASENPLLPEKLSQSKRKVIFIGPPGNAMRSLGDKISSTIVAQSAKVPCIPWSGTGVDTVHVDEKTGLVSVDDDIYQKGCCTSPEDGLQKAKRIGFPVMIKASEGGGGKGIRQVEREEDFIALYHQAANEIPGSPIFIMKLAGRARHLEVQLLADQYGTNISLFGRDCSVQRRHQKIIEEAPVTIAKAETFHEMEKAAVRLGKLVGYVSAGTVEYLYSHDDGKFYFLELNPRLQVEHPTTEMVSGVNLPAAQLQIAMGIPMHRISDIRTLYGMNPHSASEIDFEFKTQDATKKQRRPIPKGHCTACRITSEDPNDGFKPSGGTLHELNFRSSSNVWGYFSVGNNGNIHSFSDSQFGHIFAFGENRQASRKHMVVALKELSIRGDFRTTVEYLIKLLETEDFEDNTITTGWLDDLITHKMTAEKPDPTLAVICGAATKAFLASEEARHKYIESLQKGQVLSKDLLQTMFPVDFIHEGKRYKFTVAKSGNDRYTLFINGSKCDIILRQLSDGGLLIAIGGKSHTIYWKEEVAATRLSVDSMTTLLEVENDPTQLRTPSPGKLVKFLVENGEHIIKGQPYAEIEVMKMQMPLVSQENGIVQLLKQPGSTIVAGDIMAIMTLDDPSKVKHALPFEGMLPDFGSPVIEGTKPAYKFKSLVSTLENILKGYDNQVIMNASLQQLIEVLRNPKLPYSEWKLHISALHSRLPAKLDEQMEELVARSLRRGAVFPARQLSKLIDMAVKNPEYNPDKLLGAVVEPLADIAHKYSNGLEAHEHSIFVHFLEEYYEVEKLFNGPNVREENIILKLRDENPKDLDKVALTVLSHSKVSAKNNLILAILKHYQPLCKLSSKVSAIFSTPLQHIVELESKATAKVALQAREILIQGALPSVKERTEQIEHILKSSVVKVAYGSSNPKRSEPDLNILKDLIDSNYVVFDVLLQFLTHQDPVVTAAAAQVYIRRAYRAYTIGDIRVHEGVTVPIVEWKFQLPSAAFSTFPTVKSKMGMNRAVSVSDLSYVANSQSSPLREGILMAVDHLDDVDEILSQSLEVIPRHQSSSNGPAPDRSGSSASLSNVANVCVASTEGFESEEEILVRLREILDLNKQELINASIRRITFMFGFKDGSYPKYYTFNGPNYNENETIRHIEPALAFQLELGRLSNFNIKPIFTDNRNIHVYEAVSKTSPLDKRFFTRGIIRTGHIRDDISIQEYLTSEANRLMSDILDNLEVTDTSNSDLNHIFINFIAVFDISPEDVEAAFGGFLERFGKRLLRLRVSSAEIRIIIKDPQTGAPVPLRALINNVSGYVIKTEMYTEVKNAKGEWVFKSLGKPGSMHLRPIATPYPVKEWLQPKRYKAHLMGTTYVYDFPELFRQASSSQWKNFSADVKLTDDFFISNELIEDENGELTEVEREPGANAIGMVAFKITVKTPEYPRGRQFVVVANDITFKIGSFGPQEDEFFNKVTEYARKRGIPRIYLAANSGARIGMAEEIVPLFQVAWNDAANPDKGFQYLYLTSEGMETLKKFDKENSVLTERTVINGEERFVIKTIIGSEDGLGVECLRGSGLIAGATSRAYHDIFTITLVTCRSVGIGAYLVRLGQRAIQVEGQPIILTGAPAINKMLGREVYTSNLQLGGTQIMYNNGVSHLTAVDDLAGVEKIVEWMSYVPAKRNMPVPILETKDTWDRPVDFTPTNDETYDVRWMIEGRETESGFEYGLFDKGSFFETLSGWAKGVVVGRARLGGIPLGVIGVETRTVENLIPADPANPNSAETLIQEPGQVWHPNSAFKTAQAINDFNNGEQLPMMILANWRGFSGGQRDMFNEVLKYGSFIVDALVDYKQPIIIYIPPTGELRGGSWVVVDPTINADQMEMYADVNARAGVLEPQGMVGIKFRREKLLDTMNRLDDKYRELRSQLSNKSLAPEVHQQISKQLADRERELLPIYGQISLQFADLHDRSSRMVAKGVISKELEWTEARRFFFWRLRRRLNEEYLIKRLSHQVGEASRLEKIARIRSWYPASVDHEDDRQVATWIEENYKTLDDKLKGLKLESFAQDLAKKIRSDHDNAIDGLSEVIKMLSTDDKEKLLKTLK

Compound | IC50 (Fungal ACC2) | MIC [1] | IC50 (Human ACC2) | MIC (C. krusei ATCC 6258) | MIC (C. albicans ATCC 90028)
COc1ccc(F)cc1[C@H](Cn1c(=O)n([C@]2(C)CC(=O)N(C)C2)c(=O)c2c(C)c(-n3nccn3)sc21)OCCO [Compound I-121, 3-((R)-1,3-dimethyl-5-oxopyrrolidin-3-yl)-1-((R)-2-(5-fluoro-2-methoxyphenyl)-2-(2-hydroxyethoxy)ethyl)-5-methyl-6-(2H-1,2,3-triazol-2-yl)thieno[2,3-d]pyrimidine-2,4(1H,3H)-dione] | 0.7 to 2 nM | 2.1 to 4 µg/mL (≈ 3.67 to 6.99 µM) | 10 to 100 nM | 2.1 to 4 µg/mL (≈ 3.67 to 6.99 µM) | 2.1 to 4 µg/mL (≈ 3.67 to 6.99 µM)
COCCO[C@@H](Cn1c(=O)n([C@@]2(C)CC(=O)N(C)C2)c(=O)c2c(C)c(-n3nccn3)sc21)c1cc(F)ccc1OC [Compound I-122, 3-((S)-1,3-dimethyl-5-oxopyrrolidin-3-yl)-1-((R)-2-(5-fluoro-2-methoxyphenyl)-2-(2-methoxyethoxy)ethyl)-5-methyl-6-(2H-1,2,3-triazol-2-yl)thieno[2,3-d]pyrimidine-2.4(1H, 3H)-dione] | 2 to 10 nM | 2.1 to 4 µg/mL (≈ 3.58 to 6.82 µM) | 10 to 100 nM | 2.1 to 4 µg/mL (≈ 3.58 to 6.82 µM) | 2.1 to 4 µg/mL (≈ 3.58 to 6.82 µM)
COc1ccc(F)cc1[C@H](Cn1c(=O)n([C@@]2(C)CC(=O)N(C)C2)c(=O)c2c(C)c(-n3nccn3)sc21)OCCO [Compound I-123, 3-((S)-1,3-dimethyl-5-oxopyrrolidin-3-yl)-1-((R)-2-(5-fluoro-2-methoxyphenyl)-2-(2-hydroxyethoxy)ethyl)-5-methyl-6-(2H-1,2,3-triazol-2-yl)thieno[2,3-d]pyrimidine-2,4(1H,3H)-dione] | 0.7 to 2 nM | 2.1 to 4 µg/mL (≈ 3.67 to 6.99 µM) | 10 to 100 nM | 2.1 to 4 µg/mL (≈ 3.67 to 6.99 µM) | 2.1 to 4 µg/mL (≈ 3.67 to 6.99 µM)
COCCO[C@@H](Cn1c(=O)n([C@]2(C)CCCNC2=O)c(=O)c2c(C)c(-n3nccn3)sc21)c1cc(F)ccc1OC [Compound I-124, 1-((R)-2-(5-fluoro-2-methoxyphenyl)-2-(2-methoxy-ethoxy)ethyl)-5-methyl-3-((R)-3-methyl-2-oxopiperidin-3-yl)-6-(2H-1,2,3-triazol-2-yl)thieno[2,3-d]pyrimidine-2,4(1H,3H)-dione] | 2 to 10 nM | 2.1 to 4 µg/mL (≈ 3.58 to 6.82 µM) | 10 to 100 nM | 2.1 to 4 µg/mL (≈ 3.58 to 6.82 µM) | 2.1 to 4 µg/mL (≈ 3.58 to 6.82 µM)
COCCO[C@@H](Cn1c(=O)n([C@@]2(C)CCCNC2=O)c(=O)c2c(C)c(-n3nccn3)sc21)c1cc(F)ccc1OC [Compound I-125, 1-((R)-2-(5-fluoro-2-methoxyphenyl)-2-(2-methoxy-ethoxy)ethyl)-5-methyl-3-((S)-3-methyl-2-oxopiperidin-3-yl)-6-(2H-1,2,3-triazol-2-yl)thieno[2,3-d]pyrimidine-2,4(1H,3H)-dione] | 2 to 10 nM | 2.1 to 4 µg/mL (≈ 3.58 to 6.82 µM) | 10 to 100 nM | 2.1 to 4 µg/mL (≈ 3.58 to 6.82 µM) | 2.1 to 4 µg/mL (≈ 3.58 to 6.82 µM)
COc1ccc(F)cc1[C@H](Cn1c(=O)n([C@]2(C)CCCNC2=O)c(=O)c2c(C)c(-n3nccn3)sc21)OCCO [Compound I-126, 1-((R)-2-(5-fluoro-2-methoxyphenyl)-2-(2-hydroxyethoxy)ethyl)-5-methyl-3-((R)-3-methyl-2-oxopiperidin-3-yl)-6-(2H, 1,2,3-triazol-2-yl)thieno[2,3-d]pyrimidine-2,4(1H,3H)-dione] | 0.7 to 2 nM | 2.1 to 4 µg/mL (≈ 3.67 to 6.99 µM) | 2 to 10 nM | 0.25 to 1 µg/mL (≈ 0.437 to 1.75 µM) | 2.1 to 4 µg/mL (≈ 3.67 to 6.99 µM)
COc1ccc(F)cc1[C@H](Cn1c(=O)n([C@@]2(C)CCCNC2=O)c(=O)c2c(C)c(-n3nccn3)sc21)OCCO [Compound I-127, 1-((R)-2-(5-fluoro-2-methoxyphenyl)-2-(2-hydroxyethoxy)ethyl)-5-methyl-3-((S)-3-methyl-2-oxopiperidin-3-yl)-6-(2H-1,2,3-triazol-2-yl)thieno[2,3-d]pyrimidine-2,4(1H,3H)-dione] | 0.7 to 2 nM | 2.1 to 4 µg/mL (≈ 3.67 to 6.99 µM) | 10 to 100 nM | 2.1 to 4 µg/mL (≈ 3.67 to 6.99 µM) | 2.1 to 4 µg/mL (≈ 3.67 to 6.99 µM)
COCCO[C@@H](Cn1c(=O)n([C@]2(C)CCCN(C)C2=O)c(=O)c2c(C)c(-n3nccn3)sc21)c1cc(F)ccc1OC [Compound I-128, 3-((R)-1,3-dimethyl-2-oxopiperidin-3-yl)-1-((R)-2-(5-fluoro-2-methoxyphenyl)-2-(2-methoxyethoxy)ethyl)-5-methyl-6-(2H-1,2,3-triazol-2-yl)thieno[2,3-d]pyrimidine-2,4(1H,3H)-dione] | 2 to 10 nM | 2.1 to 4 µg/mL (≈ 3.5 to 6.66 µM) | 10 to 100 nM | 2.1 to 4 µg/mL (≈ 3.5 to 6.66 µM) | 2.1 to 4 µg/mL (≈ 3.5 to 6.66 µM)
COc1ccc(F)cc1[C@H](Cn1c(=O)n([C@]2(C)CCCN(C)C2=O)c(=O)c2c(C)c(-n3nccn3)sc21)OCCO [Compound I-129, 3-((R)-1,3-dimethyl-2-oxopiperidin-3-yl)-1-((R)-2-(5-fluoro-2-methoxyphenyl)-2-(2-hydroxyethoxy)ethyl)-5-methyl-6-(2H-1,2,3-triazol-2-yl)thieno[2,3-d]pyrimidine-2,4(1H,3H)-dione] | 0.7 to 2 nM | 2.1 to 4 µg/mL (≈ 3.58 to 6.82 µM) | 10 to 100 nM | 2.1 to 4 µg/mL (≈ 3.58 to 6.82 µM) | 2.1 to 4 µg/mL (≈ 3.58 to 6.82 µM)
COCCO[C@@H](Cn1c(=O)n([C@@]2(C)CCCN(C)C2=O)c(=O)c2c(C)c(-n3nccn3)sc21)c1cc(F)ccc1OC [Compound I-130, 3-((S)-1,3-dimethyl-2-oxopiperidin-3-yl)-1-((R)-2-(5-fluoro-2-methoxyphenyl)-2-(2-methoxyethoxy)ethyl)-5-methyl-6-(2H-1,2,3-triazol-2-yl)thieno[2,3-d]pyrimidine-2,4(1H,3H)-dione] | 2 to 10 nM | 2.1 to 4 µg/mL (≈ 3.5 to 6.66 µM) | 100 to 1000 nM | 2.1 to 4 µg/mL (≈ 3.5 to 6.66 µM) | 2.1 to 4 µg/mL (≈ 3.5 to 6.66 µM)
COc1ccc(F)cc1[C@H](Cn1c(=O)n([C@@]2(C)CCCN(C)C2=O)c(=O)c2c(C)c(-n3nccn3)sc21)OCCO [Compound I-131, 3-((S)-1,3-dimethyl-2-oxopiperidin-3-yl)-1-((R)-2-(5-fluoro-2-methoxyphenyl)-2-(2-hydroxyethoxy)ethyl)-5-methyl-6-(2H-1,2,3-triazol-2-yl)thieno[2,3-d]pyrimidine-2,4(1H,3H)-dione] | 0.7 to 2 nM | 2.1 to 4 µg/mL (≈ 3.58 to 6.82 µM) | 10 to 100 nM | 2.1 to 4 µg/mL (≈ 3.58 to 6.82 µM) | 2.1 to 4 µg/mL (≈ 3.58 to 6.82 µM)
COCCO[C@@H](Cn1c(=O)n([C@]2(C)CCC(=O)NC2)c(=O)c2c(C)c(-n3nccn3)sc21)c1cc(F)ccc1OC [Compound I-132, 1-((R)-2-(5-fluoro-2-methoxyphenyl)-2-(2-methoxy-ethoxy)ethyl)-5-methyl-3-((R)-3-methyl-6-oxopiperidin-3-yl)-6-(2H-1,2,3-triazol-2-yl)thieno[2,3-d]pyrimidine-2,4(1H,3H)-dione] | 0.7 to 2 nM | 2.1 to 4 µg/mL (≈ 3.58 to 6.82 µM) | 10 to 100 nM | 2.1 to 4 µg/mL (≈ 3.58 to 6.82 µM) | 2.1 to 4 µg/mL (≈ 3.58 to 6.82 µM)
COCCO[C@@H](Cn1c(=O)n([C@@]2(C)CCC(=O)NC2)c(=O)c2c(C)c(-n3nccn3)sc21)c1cc(F)ccc1OC [Compound I-134, 1-((R)-2-(5-fluoro-2-methoxyphenyl)-2-(2-methoxy-ethoxy)ethyl)-5-methyl-3-((S)-3-methyl-6-oxopiperidin-3-yl)-6-(2H-1,2,3-triazol-2-yl)thieno[2,3-d]pyrimidine-2,4(1H,3H)-dione] | 2 to 10 nM | 2.1 to 4 µg/mL (≈ 3.58 to 6.82 µM) | 100 to 1000 nM | 2.1 to 4 µg/mL (≈ 3.58 to 6.82 µM) | 2.1 to 4 µg/mL (≈ 3.58 to 6.82 µM)
COCCO[C@@H](Cn1c(=O)n([C@]2(C)CCC(=O)N(C)C2)c(=O)c2c(C)c(-n3nccn3)sc21)c1cc(F)ccc1OC [Compound I-136, 3-((R)-1,3-dimethyl-6-oxopiperidin-3-yl)-1-((R)-2-(5-fluoro-2-methoxyphenyl)-2-(2-methoxyethoxy)ethyl)-5-methyl-6-(2H-1,2,3-triazol-2-yl)thieno[2,3-d]pyrimidine-2,4(1H,3H)-dione] | 0.7 to 2 nM | 2.1 to 4 µg/mL (≈ 3.5 to 6.66 µM) | 10 to 100 nM | 2.1 to 4 µg/mL (≈ 3.5 to 6.66 µM) | 2.1 to 4 µg/mL (≈ 3.5 to 6.66 µM)
COCCO[C@@H](Cn1c(=O)n([C@@]2(C)CCC(=O)N(C)C2)c(=O)c2c(C)c(-n3nccn3)sc21)c1cc(F)ccc1OC [Compound I-137, 3-((S)-1,3-dimethyl-6-oxopiperidin-3-yl)-1-((R)-2-(5-fluoro-2-methoxyphenyl)-2-(2-methoxyethoxy)ethyl)-5-methyl-6-(2H-1,2,3-triazol-2-yl)thieno[2,3-d]pyrimidine-2,4(1H,3H)-dione] | 2 to 10 nM | 2.1 to 4 µg/mL (≈ 3.5 to 6.66 µM) | 10 to 100 nM | 2.1 to 4 µg/mL (≈ 3.5 to 6.66 µM) | 2.1 to 4 µg/mL (≈ 3.5 to 6.66 µM)
COc1ccc(F)cc1[C@H](Cn1c(=O)n([C@]2(C)CCC(=O)N(C)C2)c(=O)c2c(C)c(-n3nccn3)sc21)OCCO [Compound I-142] | 0.7 to 2 nM | 2.1 to 4 µg/mL (≈ 3.58 to 6.82 µM) | 2 to 10 nM | 2.1 to 4 µg/mL (≈ 3.58 to 6.82 µM) | 2.1 to 4 µg/mL (≈ 3.58 to 6.82 µM)
COc1ccc(F)cc1[C@H](Cn1c(=O)n([C@@]2(C)CCC(=O)N(C)C2)c(=O)c2c(C)c(-n3nccn3)sc21)OCCO [Compound I-143, 3-((S)-1,3-dimethyl-6-oxopiperidin-3-yl)-1-((R)-2-(5-fluoro-2-methoxyphenyl)-2-(2-hydroxyethoxy)ethyl)-5-methyl-6-(2H-1,2,3-triazol-2-yl)thieno[2,3-d]pyrimidine-2,4(1H,3H)-dione] | 0.7 to 2 nM | 2.1 to 4 µg/mL (≈ 3.58 to 6.82 µM) | 2 to 10 nM | 2.1 to 4 µg/mL (≈ 3.58 to 6.82 µM) | 2.1 to 4 µg/mL (≈ 3.58 to 6.82 µM)
